Experimental data reported in ChEMBL document CHEMBL1201862, “PubChem BioAssay data set” (2004).
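Tested at 5 concentrations; 48 h exposure; 96-well plates; endpoints linearly interpolated, else capped at highest concentration. GI50 = concentration required for 50% inhibition of growth.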 The source made the active and inactive calls. Rule as the data show it: active = GI50 up to about 1.1 µM and inactive = higher.

How the values were obtained:
Assay in all cases: NCI tumour cell line growth inhibition, 48 h
[1] = system: 786-0
[2] = system: A498
[3] = system: A549
[4] = system: ACHN
[5] = system: BT-549
[6] = system: CAKI-1
[7] = system: CCRF-CEM
[8] = system: COLO 205
[9] = system: DU-145
[10] = system: EKVX
[11] = system: HCT-116
[12] = system: HCT-15
[13] = system: HL-60
[14] = system: HOP-62
[15] = system: HOP-92
[16] = system: HT-29
[17] = system: Hs-578T
[18] = system: IGROV-1
[19] = system: KM12
[20] = system: LOX IMVI
[21] = system: M14
[22] = system: MCF7
[23] = system: MDA-MB-231
[24] = system: MDA-MB-435
[25] = system: MDA-N
[26] = system: Malme-3M
[27] = system: NCI-H226
[28] = system: NCI-H23
[29] = system: NCI-H460
[30] = system: NCI-H522
[31] = system: NCI/ADR-RES
[32] = system: OVCAR-3
[33] = system: OVCAR-4
[34] = system: OVCAR-5
[35] = system: OVCAR-8
[36] = system: PC-3
[37] = system: RPMI-8226
[38] = system: RXF 393
[39] = system: SF-268
[40] = system: SF-295
[41] = system: SF-539
[42] = system: SK-MEL-28
[43] = system: SK-MEL-2
[44] = system: SK-MEL-5
[45] = system: SK-OV-3
[46] = system: SN12C
[47] = system: SNB-19
[48] = system: SNB-75
[49] = system: SW-620
[50] = system: T47D
[51] = system: TK-10
[52] = system: U-251
[53] = system: UACC-62
[54] = system: UO-31
[55] = system: HCC 2998
[56] = system: K562
[57] = system: MOLT-4
[58] = system: UACC-257

Measured: GI50

O=C1c2ccccc2C(O)(O)C1(O)C1(O)C(=O)c2ccccc2C1(O)O (stereo unspecified)
inactive: [1] 38.9 µM | [2] > 100 µM | [3] 30.1 µM | [4] 21.3 µM | [5] 55.6 µM | [6] 29.6 µM | [7] 16.9 µM | [8] 20.7 µM | [9] 57.3 µM | [10] 36.3 µM | [11] 23.6 µM | [13] 18.9 µM | [14] 23.4 µM | [15] 37.6 µM | [16] > 100 µM | [17] > 100 µM | [18] 41.7 µM | [19] 39.6 µM | [20] 23 µM | [21] 35 µM | [22] 16.8 µM | [23] > 100 µM | [24] 16.6 µM | [25] 21.7 µM | [26] 22.1 µM | [27] > 100 µM | [28] 20.8 µM | [29] 18.8 µM | [30] 19.4 µM | [31] 69.7 µM | [32] 25.1 µM | [33] 45.5 µM | [34] 65.2 µM | [35] 35.9 µM | [36] > 100 µM | [37] 51.2 µM | [38] 26.6 µM | [39] > 100 µM | [40] 34.8 µM | [41] 24.2 µM | [42] > 100 µM | [43] > 100 µM | [44] 20.1 µM | [45] > 100 µM | [46] 16.1 µM | [47] 91.8 µM | [48] 15.6 µM | [49] 35.3 µM | [50] 23.1 µM | [51] 23 µM | [52] 37.2 µM | [53] 86.9 µM | [54] 19.6 µM
21.8 µM: [12]

Cn1c(COC(=O)Nc2ccccc2)c(COC(=O)Nc2ccccc2)c2ccc3cc(Cl)c(Cl)cc3c21
4.4 µM: [12]
active: [6] 1.06 µM | [56] 1.07 µM | [57] 1.1 µM
inactive: [1] 2.76 µM | [2] 1.65 µM | [3] 23.3 µM | [4] 8.79 µM | [5] 2.58 µM | [7] 1.51 µM | [8] 3.39 µM | [9] 11.3 µM | [10] 15.9 µM | [55] 5.5 µM | [11] 9.66 µM | [13] 2.46 µM | [15] 2.1 µM | [16] 8.02 µM | [17] 5.73 µM | [18] 8.95 µM | [19] 10.2 µM | [20] 2.52 µM | [21] 7.71 µM | [22] 2.14 µM | [23] 3.33 µM | [24] 7.87 µM | [25] 8.07 µM | [26] 1.74 µM | [27] 13.4 µM | [28] 2.63 µM | [29] 8.2 µM | [31] 16.4 µM | [32] 11 µM | [34] 10.7 µM | [35] 6.73 µM | [36] 8.05 µM | [38] 9.64 µM | [39] 3.57 µM | [40] 18.7 µM | [41] 10.8 µM | [42] 3.61 µM | [43] 4.31 µM | [44] 4.62 µM | [45] 20.9 µM | [46] 4.07 µM | [47] 4.24 µM | [48] 8.53 µM | [49] 2.69 µM | [50] 1.53 µM | [51] 9.4 µM | [52] 1.95 µM | [58] 8.39 µM | [53] 6.24 µM | [54] 10.4 µM

C1CCC2(CC1)O[C@@H]1[C@@H](O2)[C@@H](O[C@H]2O[C@@H]3COC4(CCCCC4)O[C@H]3[C@@H]3OC4(CCCCC4)O[C@@H]23)O[C@@H]2COC3(CCCCC3)O[C@@H]12
inactive: [1] > 100 µM | [2] > 100 µM | [3] > 100 µM | [4] > 100 µM | [5] > 100 µM | [6] > 100 µM | [7] > 100 µM | [8] > 100 µM | [9] > 100 µM | [10] > 100 µM | [11] > 100 µM | [13] 11.4 µM | [14] > 100 µM | [15] > 100 µM | [16] > 100 µM | [17] > 100 µM | [18] > 100 µM | [56] > 100 µM | [19] > 100 µM | [20] > 100 µM | [21] > 100 µM | [22] > 100 µM | [23] > 100 µM | [24] > 100 µM | [25] > 100 µM | [57] 23.9 µM | [26] > 100 µM | [28] > 100 µM | [30] > 100 µM | [31] > 100 µM | [32] > 100 µM | [33] > 100 µM | [34] > 100 µM | [35] > 100 µM | [36] > 100 µM | [37] 36.6 µM | [38] > 100 µM | [39] > 100 µM | [40] > 100 µM | [41] > 100 µM | [42] > 100 µM | [43] > 100 µM | [44] > 100 µM | [45] > 100 µM | [46] > 100 µM | [47] > 100 µM | [48] > 100 µM | [49] > 100 µM | [50] > 100 µM | [51] > 100 µM | [52] > 100 µM | [58] > 100 µM | [53] > 100 µM | [54] > 100 µM

C[C@@H]1OC(=O)C[C@H]2CC(=O)N(CCc3cn(S(=O)(=O)C(F)(F)F)c4ccccc34)C[C@@H]21
inactive: [1] > 100 µM | [2] > 100 µM | [3] > 100 µM | [4] > 100 µM | [5] > 100 µM | [6] > 100 µM | [7] > 100 µM | [8] > 100 µM | [9] > 100 µM | [10] > 100 µM | [55] > 100 µM | [11] > 100 µM | [14] > 100 µM | [15] > 100 µM | [16] > 100 µM | [17] > 100 µM | [18] > 100 µM | [56] > 100 µM | [19] > 100 µM | [21] > 100 µM | [22] > 100 µM | [23] > 100 µM | [24] > 100 µM | [25] > 100 µM | [57] > 100 µM | [26] > 100 µM | [28] > 100 µM | [29] > 100 µM | [30] > 100 µM | [31] > 100 µM | [32] > 100 µM | [33] > 100 µM | [34] > 100 µM | [35] > 100 µM | [36] > 100 µM | [37] > 100 µM | [38] > 100 µM | [39] > 100 µM | [40] > 100 µM | [42] > 100 µM | [43] > 100 µM | [44] > 100 µM | [45] > 100 µM | [47] > 100 µM | [48] > 100 µM | [49] > 100 µM | [50] > 100 µM | [51] > 100 µM | [52] > 100 µM | [58] > 100 µM | [53] > 100 µM | [54] > 100 µM
> 100 µM: [12]

CCOC(=O)c1c(NC(=O)c2ccccc2)sc2c1CCCC2
inactive: [1] > 100 µM | [2] > 100 µM | [4] > 100 µM | [5] > 100 µM | [6] > 100 µM | [7] > 100 µM | [8] > 100 µM | [9] > 100 µM | [10] > 100 µM | [11] > 100 µM | [13] > 100 µM | [16] > 100 µM | [17] > 100 µM | [18] > 100 µM | [56] > 100 µM | [19] > 100 µM | [20] > 100 µM | [21] > 100 µM | [22] > 100 µM | [23] 81.7 µM | [24] > 100 µM | [25] > 100 µM | [57] > 100 µM | [26] 78.9 µM | [27] > 100 µM | [28] > 100 µM | [31] > 100 µM | [32] > 100 µM | [34] > 100 µM | [35] > 100 µM | [36] > 100 µM | [37] > 100 µM | [38] > 100 µM | [39] > 100 µM | [40] > 100 µM | [41] > 100 µM | [42] > 100 µM | [43] > 100 µM | [44] > 100 µM | [45] > 100 µM | [46] > 100 µM | [47] > 100 µM | [48] 7.23 µM | [49] > 100 µM | [50] > 100 µM | [51] > 100 µM | [52] > 100 µM | [58] > 100 µM | [53] > 100 µM | [54] > 100 µM
> 100 µM: [12]
